Measured values from ChEMBL document CHEMBL4342450, “Antitumor Activity of Ohmyungsamycin A through the Regulation of the Skp2-p27 Axis and MCM4 in Human Colorectal Cancer Cells” (J Nat Prod, 2020).

Key:
[1] = test system: SNU-638; test: Antiproliferative activity against human SNU638 cells after 72 hrs by sulforhodamine B assay; assay type: functional, cell-based; conditions: SNU-638, 72 h
[2] = test system: MDA-MB-231; test: Antiproliferative activity against human MDA-MB-231 cells after 72 hrs by sulforhodamine B assay; assay type: functional, cell-based; conditions: MDA-MB-231, 72 h
[3] = test system: A549; test: Antiproliferative activity against human A549 cells after 72 hrs by sulforhodamine B assay; assay type: functional, cell-based; conditions: A549, 72 h
[4] = test system: HCT-116; test: Antiproliferative activity against human HCT116 cells after 72 hrs by sulforhodamine B assay; assay type: functional, cell-based; conditions: HCT-116, 72 h
[5] = test system: MRC5; test: Antiproliferative activity against human MRC5 cells after 72 hrs by sulforhodamine B assay; assay type: cell-based; conditions: MRC5, 72 h
[6] = test system: SK-HEP1; test: Antiproliferative activity against human SKHEP1 cells after 72 hrs by sulforhodamine B assay; assay type: functional, cell-based; conditions: SK-HEP1, 72 h

Structure (SMILES): COc1cc([C@@H]2c3cc4c(cc3[C@@H](O[C@@H]3O[C@@H]5CO[C@@H](C)O[C@H]5[C@H](O)[C@H]3O)[C@H]3COC(=O)[C@H]23)OCO4)cc(OC)c1O [ETOPOSIDE]
- IC50 [1]: 820 nM
- IC50 [2]: 3850 nM
- IC50 [3]: 480 nM
- IC50 [4]: 520 nM
- IC50 [5]: 11200 nM
- IC50 [6]: 780 nM
